Target: T1, human GPR119 (Homo sapiens, UniProt Q8TDV5)
T1 construct: expression vector for human GPR119 cDNA (Acc. No. NP_848566); expressed in transfected cells; Min-6/hGPR119
T1 sequence (Q8TDV5 1-335): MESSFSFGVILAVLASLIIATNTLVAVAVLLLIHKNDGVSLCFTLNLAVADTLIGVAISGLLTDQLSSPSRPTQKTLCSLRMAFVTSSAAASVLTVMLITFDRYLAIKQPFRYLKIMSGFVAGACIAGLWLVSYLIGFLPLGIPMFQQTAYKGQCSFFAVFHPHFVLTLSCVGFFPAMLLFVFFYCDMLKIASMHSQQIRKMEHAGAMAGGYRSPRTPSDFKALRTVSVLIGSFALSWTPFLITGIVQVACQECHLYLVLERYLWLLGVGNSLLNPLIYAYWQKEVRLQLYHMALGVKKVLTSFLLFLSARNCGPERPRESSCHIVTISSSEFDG
Assay: AlphaScreen cAMP assay in MIN6 cells stably transfected with human GPR119
Assay type: cell-based
Conditions: Min-6/hGPR119 cells, 45 min at room temperature
Description: The compounds of formula I according to the invention modulate the activity of the G-protein-coupled receptor GPR119. The effect of the compounds on the activation of GPR119 and on the stimulation of intracellular cAMP concentration is determined using the AlphaScreen cAMP Assay Kit (Cat. No. #6760625R) made by PerkinElmer.
MIN6 cells [Miyazaki J et al. Endocrinology. 1990 July; 127(1):126-32] are stably transfected with an expression vector for human GPR119 cDNA (Acc. No. NP_848566). Min-6/hGPR119 cells are cultured in DMEM, 10% FBS, 50 μM β-mercaptoethanol, 0.3 mg/mL Geniticin, 2 mM GlutaMAX at 37° C. 5% CO2. For the assay, the cells are seeded in Optiplates (white, 384-well, 160 W—barcoded, TC, sterile with lid, Cat. No. #6007688 (Perkin Elmer); 10000 cells/well; 50 μl). The plates covered with lids are then incubated for 24 hours at 37° C./5% CO2. After the medium is aspirated from the wells completely, 10 μl of the test compound are added, the compounds are diluted using stimulating buffer (140 mM NaCl, 3.6 mM KCl, 0.5 mM NaH2PO4, 0.5 mM MgSO4, 1.5 mM CaCl2, 10 mM Hepes, 5 mM NaHCO3; pH 7.4. 0.5 mM IBMX and 0.1% BSA, the final DMSO concentration is 1%). After 45 minutes incubation at room temperature (approx. 20° C.), the cAMP concentrations are determined using the AlphaScreen cAMP Assay Kit (Cat. No. #6760625R from PerkinElmer).

SMILES | EC50 [nM]
COc1ccc(NC(=O)c2ccc(-c3ncc(C(=O)N(C4CC4)C4CCN(C(=O)OC(C)(C)C)CC4)cn3)cc2)cn1 [Example 174, 4-(Cyclopropyl-{2-[4-(6-methoxy-pyridin-3-ylcarbamoyl)-phenyl]-pyrimidine-5-carbonyl}-amino)-piperidine-1-carboxylic acid tert-butyl ester] | 170
CC(=O)NCc1ccc(-c2ncc(C(=O)N(C3CC3)C3CCN(C(=O)OC(C)(C)C)CC3)cn2)cc1 [Example 87, 4-({2-[4-(Acetylamino-methyl)-phenyl]-pyrimidine-5-carbonyl}-cyclopropyl-amino)-piperidine-1-carboxylic acid tert-buyl ester] | 443
CC(C)OC(=O)N1CCC(N(C(=O)c2cnc(-c3ccc(C#N)c(F)c3)nc2)C2CC2)CC1 [Example 61, 4-{[2-(4-Cyano-3-fluoro-phenyl)-pyrimidine-5-carbonyl]-cyclopropyl-amino}-piperidine-1-carboxylic acid isopropyl ester] | 13
CC(C)(C)OC(=O)N1CCC(N(C(=O)c2cnc(-c3ccc(C(=O)Nc4ccccc4)c(F)c3)nc2)C2CC2)CC1 [Example 153, 4-{Cyclopropyl-[2-(3-fluoro-4-phenylcarbamoyl-phenyl)-pyrimidine-5-carbonyl]-amino}-piperidine-1-carboxylic acid tert-butyl ester] | 109
CC(C)(C)OC(=O)N1CCC(N(C(=O)c2ccc(-c3cnco3)nc2)C2CC2)CC1 [Example 5, 4-[Cyclopropyl-(6-oxazol-5-yl-pyridine-3-carbonyl)-amino]-piperidine-1-carboxylic acid tert-butyl ester] | 62
COCC1CCCCN1C(=O)c1ccc(-c2ncc(C(=O)N(C3CC3)C3CCN(C(=O)OC(C)(C)C)CC3)cn2)cc1F (stereo not drawn) [Example 149, 4-(Cyclopropyl-{2-[3-fluoro-4-(2-methoxymethyl-piperidine-1-carbonyl)-phenyl]-pyrimidine-5-carbonyl}-amino)-piperidine-1-carboxylic acid tert-butyl ester] | 297
CC(C)(C)OC(=O)N1CCC(N(C(=O)c2cnc(-c3ccc(CC(=O)N4CC(F)(F)C4)cc3)nc2)C2CC2)CC1 [Example 184, 4-[Cyclopropyl-(2-{4-[2-(3,3-difluoro-azetidin-1-yl)-2-oxo-ethyl]-phenyl}-pyrimidine-5-carbonyl)-amino]-piperidine-1-carboxylic acid tert-butyl ester] | 149
CC(C)(C)OC(=O)N1CCC(N(C(=O)c2cnc(-c3ccc(C(=O)NCc4cocn4)cc3)nc2)C2CC2)CC1 [Example 228, 4-[Cyclopropyl-(2-{4-[(oxazol-4-ylmethyl)-carbamoyl]-phenyl}-pyrimidine-5-carbonyl)-amino]-piperidine-1-carboxylic acid tert-butyl ester] | 379
CC(C)(C)OC(=O)N1CCC(N(C(=O)c2cnc(-c3ccc(C(=O)NCc4ccncc4)cc3)nc2)C2CC2)CC1 [Example 241, 4-[Cyclopropyl-(2-{4-[(pyridin-4-ylmethyl)-carbamoyl]-phenyl}-pyrimidine-5-carbonyl)-amino]-piperidine-1-carboxylic acid tert-butyl ester] | 245
CN(CCOCC1CC1)C(=O)c1ccc(-c2ncc(C(=O)N(C3CC3)C3CCN(C(=O)OC(C)(C)C)CC3)cn2)c(F)c1 [Example 138, 4-[Cyclopropyl-(2-{4-[(2-cyclopropylmethoxy-ethyl)-methyl-carbamoyl]-2-fluoro-phenyl}-pyrimidine-5-carbonyl)-amino]-piperidine-1-carboxyli acid tert-butyl ester] | 346
CC(C)(C)OC(=O)N1CCC(N(C(=O)c2cnc(-c3ccc(C#N)cc3F)o2)C2CC2)CC1 [Example 31, 4-{[2-(4-Cyano-2-fluoro-phenyl)-oxazole-5-carbonyl]-cyclopropyl-amino}-piperidine-1-carboxylic acid tert-butyl ester] | 48
CC(C)(C)OC(=O)N1CCC(N(C(=O)c2cnc(-c3ccc(C(=O)NCC4CCCO4)cc3)nc2)C2CC2)CC1 (stereo not drawn) [Example 244, 4-[Cyclopropyl-(2-{4-[(tetrahydro-furan-2-ylmethyl)-carbamoyl]-phenyl)-pyrimidine-5-carbonyl)-amino]-piperidine-1-carboxylic acid tert-buyl ester] | 237
Cc1ccc(-c2ncc(C(=O)N(C3CC3)C3CCN(C(=O)OC(C)(C)C)CC3)cn2)cn1 [Example 89, 4-{Cyclopropyl-[2-(6-methyl-pyridin-3-yl)-pyrimidine-5-carbonyl]-amino}-piperidine-1-carboxylic acid tert-butyl ester] | 240
CC(C)(C)OC(=O)N1CCC(N(C(=O)c2coc(-c3ccc(C#N)cc3F)n2)C2CC2)CC1 [Example 23, 4-{[2-(4-Cyano-2-fluoro-phenyl)-oxazole-4-carbonyl]-cyclopropyl-amino}-piperidine-1-carboxylic acid tert-butyl ester] | 18
CN(C(=O)c1ccc(-c2ncc(C(=O)N(C3CC3)C3CCN(C(=O)OC(C)(C)C)CC3)cn2)cc1)C1CCCOC1 (stereo not drawn) [Example 222, 4-[Cyclopropyl-(2-{4-[methyl-(tetrahydro-pyran-3-yl)-carbamoyl]-phenyl}-pyrimidine-5-carbonyl)-amino]-piperidine-1-carboxylic acid tert-butyl ester] | 545
Cc1cnc(CNC(=O)Cc2ccc(-c3ncc(C(=O)N(C4CC4)C4CCN(C(=O)OC(C)(C)C)CC4)cn3)cc2)s1 [Example 199, 4-{Cyclopropyl-[2-(4-{[(5-methyl-thiazol-2-ylmethyl)-carbamoyl]-methyl}-phenyl)-pyrimidine-5-carbonyl]-amino}-piperidine-1-carboxylic acid tert-buyl ester] | 395
CC(C)(C)OC(=O)N1CCC(N(C(=O)c2ncc(-c3cnco3)cn2)C2CC2)CC1 [Example 7, 4-[Cyclopropyl-(5-oxazol-5-yl-pyrimidine-2-carbonyl)-amino]-piperidine-1-carboxylic acid tert-butyl ester] | 1200
CCOc1ccc(-c2ncc(C(=O)N(C3CC3)C3CCN(C(=O)OC(C)(C)C)CC3)cn2)cc1 [Example 76, 4-{Cyclopropyl-[2-(4-ethoxy-phenyl)-pyrimidine-5-carbonyl]-amino}-piperidine-1-carboxylic acid tert-butyl ester] | 71
CC(C)(C)OC(=O)N1CCC(N(C(=O)c2cnc(-c3ccc(CC(=O)Nc4cccc(CO)c4)cc3)nc2)C2CC2)CC1 [Example 217, 4-[Cyclopropyl-(2-{4-[(3-hydroxymethyl-phenylcarbamoyl)-methyl]-phenyl}-pyrimidine-5-carbonyl)-amino]-piperidine-1-carboxylic acid tert-butyl ester] | 550
CC(C)(C)OC(=O)N1CCC(N(C(=O)c2cnc(-c3ccc(C(=O)NCC4CCCCO4)cc3)nc2)C2CC2)CC1 (stereo not drawn) [Example 225, 4-[Cyclopropyl-(2-{4-[(tetrahydro-pyran-2-ylmethyl)-carbamoyl]-phenyl}-pyrimidine-5-carbonyl)-amino]-piperidine-1-carboxylic acid tert-butyl ester] | 185
CC(C)(C)OC(=O)N1CCC(N(C(=O)c2cnc(-c3ccc(C(=O)NCc4cocn4)c(F)c3)nc2)C2CC2)CC1 [Example 151, 4-[Cyclopropyl-(2-{3-fluoro-4-[(oxazol-4-ylmethyl)-carbamoyl]-phenyl}-pyrimidine-5-carbonyl)-amino]-piperidine-1-carboxylic acid tert-butyl ester] | 123
CC(C)(C)OC(=O)N1CCC(N(C(=O)c2cnc(-c3ccc(C(=O)NCC4CCOC4)cc3)nc2)C2CC2)CC1 (stereo not drawn) [Example 237, 4-[Cyclopropyl-(2-{4-[(tetrahydro-furan-3-ylmethyl)-carbamoyl]-phenyl}-pyrimidine-5-carbonyl)-amino]-piperidine-1-carboxylic acid tert-butyl ester] | 408
CC(C)(C)OC(=O)N1CCC(N(C(=O)c2coc(-c3ccc(C#N)c(F)c3)n2)C2CC2)CC1 [Example 24, 4-{[2-(4-Cyano-3-fluoro-phenyl)-oxazole-4-carbonyl]-cyclopropyl-amino}-piperidine-1-carboxylic acid tert-butyl ester] | 42
COCC(C)N(C)C(=O)c1ccc(-c2ncc(C(=O)N(C3CC3)C3CCN(C(=O)OC(C)(C)C)CC3)cn2)c(F)c1 (stereo not drawn) [Example 135, 4-[Cyclopropyl-(2-{2-fluoro-4-[(2-methoxy-1-methyl-ethyl)-methyl-carbamoyl]-phenyl}-pyrimidine-5-carbonyl)-amino]-piperidine-1-carboxylic acid tert-butyl ester] | 914

— US20140045823A1 (Neurocrine Biosciences, Inc., priority 2012, published 2014)
